US20260258031A1, “CRYSTALLINE FORMS OF AN ESTROGEN RECEPTOR ANTAGONIST” (Olema Pharmaceuticals, Inc., priority 2022, published 2026)
Several values for one entry are separate records, joined by “and”; a condition that tells them apart may be missing. Identical values can stand only once. Each block holds one compound with its values, some of them ahead of it.

Key:
[1] = Solubility in solvents, dynamic method; type: physicochemical; settings: for solubility at 15 min: organic solvent or mixture, thermodynamic from solid, dynamic method
Procedure: […] Solubility was measured by the dynamic method and gravimetric method.
Dynamic method: Under the condition of a certain amount of solute and certain temperature, solvent was gradually added with stirring for 15 min to reach equilibrium. When solute is completely dissolved, amount of solvent was recorded and the solubility calculated.

[2] = co-former acid of salt screen; cited from earlier work
[3] = Stability in oven at 60° C. for two weeks (HPLC purity, XRPD); type: physicochemical; settings: for HPLC Purity (%) 60° C.: after two weeks at 60° C.; for HPLC Purity (%) Starting: before storage; for XRPD change after storage / Stability relative to Amorphous Compound 1: two weeks at 60° C.; for HPLC Purity (%) Degradation: two weeks at 60° C. versus starting
Procedure: Amorphous Compound 1, Compound 1 Fumarate Form E, and Compound 1 Fumarate Form A Anhydrate were placed in an oven at 60° C. for two weeks to evaluate their stability.

[4] = Dynamic vapor sorption (DVS), hygroscopicity; type: physicochemical; settings: for Hygroscopicity (%), water uptake: 25° C./80% RH
Procedure: DVS was performed using Intrinsic DVS ([…], UK). About 30-50 mg of sample was placed in a sample basked and hung in the measuring chamber. For an isotherm test, the chamber temperature was maintained by a water bath at a constant 25±1° C. The sample was tested at a targeted RH from 0 to 90% full cycle in step mode. The analysis was performed in 10% RH increments. Time duration at each RH was set as 60 min so that the sample could reach equilibrium with the chamber environment. Data were collected in 20 s increments.

[5] = Solubility, gravimetric method; type: physicochemical; settings: H2O, 25° C.; for solubility: gravimetric method
Procedure: Solubility studies of Compound 1 and Compound 1 Fumarate in different solvents at 25° C. were performed. Solubility was measured by the dynamic method and gravimetric method.
Gravimetric method: Excess solids and a certain amount of solvent were added 8 mL vials, stirred for 24 hours, and filtered.

[6] = Bulk density (untapped, graduated cylinder); type: physicochemical
Procedure: Bulk density of Compound 1 Fumarate Form E was measured by gently introducing a known sample mass into a graduated cylinder (50 mL), leveling the powder without compacting it, and recording the apparent untapped volume to the nearest graduated unit.

[7] = Competitive slurry experiments Form E / Form A Anhydrate (XRPD); type: physicochemical; settings: 25° C. or 40° C.
Procedure: Competitive slurry experiments were performed with Compound 1 Fumarate Form E and Compound 1 Fumarate Form A Anhydrate, as follows:
Experiment #1: Compound 1 Fumarate Form E (100 mg), Compound 1 Fumarate Form A Anhydrate (100 mg), and isopropanol (2 mL) were added into two 8-mL vials and mixed well in a shaker at 25° C. and 40° C., respectively. Samples for analysis were taken at 24 h and 72 h.
Experiment #2: Compound 1 Fumarate Form E (100 mg), Compound 1 Fumarate Form A Anhydrate (100 mg), and water (2 mL) were added into two 8-mL vials and mixed well in a shaker at 25° C. and 40° C., respectively. Samples for analysis were taken at 24 h and 72 h.
Experiment #3: Compound 1 Fumarate Form E (100 mg), Compound 1 Fumarate Form A Anhydrate (100 mg), and ethyl acetate (2 mL) were added into two 8-mL vials and mixed well in a shaker at 25° C. and 40° C., respectively. Samples for analysis were taken at 24 h and 72 h.

[8] = Kinetic solubility of Fumarate Form A Ethyl Acetate Solvate, solvent aliquot addition; type: physicochemical; settings: thermodynamic from solid, ambient temperature
Procedure: The screen consisted primarily of long term slurry experiments. To help design screen experiments, kinetic solubilities of Fumarate Form A Ethyl Acetate Solvate were estimated. The estimation was done on a 3-11 mg scale using a solvent aliquot addition method, and dissolution was judged by visual observation. Solubilities are estimated at ambient temperature and reported to the nearest mg/mL; if complete dissolution was achieved by one aliquot addition, solubilities were reported as “>”;

Structure (SMILES): O=C(O)/C=C/C(=O)O [Fumaric acid]
Solubility in isopropanol (in words) ([1]; 25° C.): relatively low solubility

Structure (SMILES): O=C(O)CO [Glycolic Acid]
pKa [2]: 3.28

Structure (SMILES): O=C(O)c1cc2ccccc2c(Cc2c(O)c(C(=O)O)cc3ccccc23)c1O [Pamoic Acid]
pKa [2]: 2.51

Structure (SMILES): O=C1CC[C@@H](C(=O)O)N1 [(−)-L-Pyroglutamic acid]
pKa [2]: 3.32

Continued, in another order:

Solubility in isopropanol (in words) ([1]; 25° C.): high solubility | HPLC Purity (%) 60° C. [3]: 98.94% | HPLC Purity (%) Starting [3]: 99.23% | XRPD change after storage [3]: No change | HPLC Purity (%) Degradation [3]: −0.29% | Hygroscopicity (%), water uptake [4]: hygroscopic (0.463) % | Form Change after DVS? [4]: No
Structure (SMILES): CCCN1CC(Oc2ccc([C@@H]3c4[nH]c5ccccc5c4C[C@@H](C)N3CC(C)(C)F)cc2)C1 [Amorphous Compound 1, (1R,3R)-2-(2-fluoro-2-methylpropyl)-3-methyl-1-(4-((1-propylazetidin-3-yl)oxy)phenyl)-2,3,4,9-tetrahydro-1H-pyrido[3,4-b]indole]

Solubility in isopropanol (in words) ([1]; 25° C.): very low solubility | Change of solubility with increasing proportion of heptane ([1]; isopropanol/heptane, 25° C.): decreased significantly | solubility at 15 min ([1]; IPA, 0° C.): < 1000 µg/mL | solubility at 15 min ([1]; IPA, 25° C.): ~8460 µg/mL | solubility at 15 min ([1]; IPA/heptane (1/1), 25° C.): ~2350 µg/mL | solubility at 15 min ([1]; IPA/heptane (1/3), 25° C.): < 1000 µg/mL | solubility at 15 min ([1]; IPA/heptane (5/1), 25° C.): 5890 µg/mL | solubility at 15 min ([1]; IPA/heptane (5/3), 25° C.): ~3570 µg/mL | Solubility compared with Compound 1 Fumarate Form A Anhydrate [5]: much lower solubility | solubility [5]: 1000 µg/mL | Bulk Density, Average ([6]; average of three runs): 0.1239 g/mL | HPLC Purity (%) 60° C. [3]: 99.50% | HPLC Purity (%) Starting [3]: 99.54% | Stability relative to Amorphous Compound 1 [3]: improved stability | XRPD change after storage [3]: No change | HPLC Purity (%) Degradation [3]: −0.05% | Outcome of competitive slurry (XRPD) ([7]; isopropanol, after 24 h): more stable than Form A Anhydrate | Hygroscopicity by DVS (in words) ([4]; 25° C., 0 to 90% RH cycle): not hygroscopic
Structure (SMILES): CCCN1CC(Oc2ccc([C@@H]3c4[nH]c5ccccc5c4C[C@@H](C)N3CC(C)(C)F)cc2)C1.O=C(O)/C=C/C(=O)O [Compound 1 Fumarate Form E]
Bulk Density ([6]; single runs 1-3, untapped): 0.1288 g/mL and 0.1233 g/mL and 0.1196 g/mL | Outcome of competitive slurry (XRPD) ([7]; ethyl acetate, after 72 h): a mixture of Compound 1 Fumarate Form E and Compound 1 Fumarate Form A Anhydrate remained | Outcome of competitive slurry (XRPD) ([7]; water, after 72 h): a mixture of Compound 1 Fumarate Form E and Compound 1 Fumarate Form A Anhydrate remained

solubility ([8]; aqueous with cosolvent or surfactant or cyclodextrin, IPA/water (50/50)): > 124000 µg/mL | solubility ([8]; organic solvent or mixture, 2-BuOH): 17000 µg/mL | solubility ([8]; organic solvent or mixture, 2-MeTHF): 32000 µg/mL | solubility ([8]; organic solvent or mixture, ACN, re-precipitated after first aliquot): < 2000 µg/mL | solubility ([8]; organic solvent or mixture, Anisole): < 1000 µg/mL | solubility ([8]; organic solvent or mixture, DCE): < 9000 µg/mL | solubility ([8]; organic solvent or mixture, DCE/EtOH (96/4)): ≥ 8000 µg/mL | solubility ([8]; organic solvent or mixture, Dioxane): > 104000 µg/mL | solubility ([8]; organic solvent or mixture, IPA): 20000 µg/mL | solubility ([8]; organic solvent or mixture, MIBK): 4000 µg/mL | solubility ([8]; organic solvent or mixture, MTBE): 2000 µg/mL | solubility ([8]; organic solvent or mixture, TFE): > 100000 µg/mL | solubility ([8]; organic solvent or mixture, t-BuOAc, re-precipitated after first aliquot): 1000 µg/mL
Structure (SMILES): CCCN1CC(Oc2ccc([C@@H]3c4[nH]c5ccccc5c4C[C@@H](C)N3CC(C)(C)F)cc2)C1.O=C(O)/C=C/C(=O)O

solubility [5]: 6500 µg/mL | HPLC Purity (%) 60° C. [3]: 99.54% | HPLC Purity (%) Starting [3]: 99.58% | Stability relative to Amorphous Compound 1 [3]: improved stability | XRPD change after storage [3]: No change | HPLC Purity (%) Degradation [3]: −0.04% | Hygroscopicity (%), water uptake [4]: hygroscopic (0.108) % | Form Change after DVS? [4]: No
Structure (SMILES): CCCN1CC(Oc2ccc([C@@H]3c4[nH]c5ccccc5c4C[C@@H](C)N3CC(C)(C)F)cc2)C1.O=C(O)/C=C/C(=O)O [Compound 1 Fumarate Form A Anhydrate]
Outcome of competitive slurry (XRPD) ([7]; ethyl acetate, after 72 h): a mixture of Compound 1 Fumarate Form E and Compound 1 Fumarate Form A Anhydrate remained | Outcome of competitive slurry (XRPD) ([7]; isopropanol, after 24 h): completely transformed into Compound 1 Fumarate Form E | Outcome of competitive slurry (XRPD) ([7]; water, after 72 h): a mixture of Compound 1 Fumarate Form E and Compound 1 Fumarate Form A Anhydrate remained
